Experimental findings from patent publication US10689343B2, “Inhibitors of tryptophan 2,3-dioxygenase” (NETHERLANDS TRANSLATIONAL RESEARCH CENTER B.V., priority 2016, dated 2020) are described below.

The target of assay [1] is T1, TDO in SW48 colorectal carcinoma cells (Homo sapiens, UniProt P48775).
T1 construct: Endogenous expression of TDO has been determined in a variety of cancer cell lines; host or cells: SW48 colorectal carcinoma cells
In words: Cell-based assay for TDO in SW48 colorectal carcinoma cells (NFK GreenScreen). The conditions noted are these: 18 hours with L-tryptophan, read-out: IC50 on TDO in cells. As to the method: The biological activity of TDO inhibitors can be measured by applying above detection methods to cells that are treated with test compound. Endogenous expression of TDO has been determined in a variety of cancer cell lines (Pilotte et al.; Seegers, et al.), or TDO can be expressed in cells that lack endogenous TDO by transfection of an expression vector containing TDO cDNA. […] A preferred assay is the cell-based NFK GreenScreen™ assay (Seegers et al, supra), which measures the cellular inhibitory activity of compounds on TDO. […] No. V9920). Cell-Based Assay for TDO The NFK GreenScreen™ assay technology was also used to determine the inhibitory activity of compounds on TDO in SW48 colorectal carcinoma cells (Seegers, N., et al., J. Biol. Screen. 19: 1266; 2014). […] Compounds were dissolved in DMSO and diluted in RPMI 1640. Final DMSO concentration in the assay was 0.4% (v/v). Eight thousand cells per well in 40 μl were seeded in a black 384-well tissue plate (cat. No. 781086; […] To determine NFK levels, 12 μl NFK Green™ (NTRC, Oss, The Netherlands) was added to each well, and the plate was sealed and incubated for 4 hours at 37° C. Fluorescence was measured on an EnVision multimode reader (Perkin Elmer, Waltham, Mass., USA).

Assay [2] deals with T2, Recombinant TDO (Homo sapiens, UniProt P48775).
T2 construct: Recombinant TDO (Seegers, N., et al.) and all other assay components were diluted in TDO reaction buffer
T2 sequence (P48775 whole entry): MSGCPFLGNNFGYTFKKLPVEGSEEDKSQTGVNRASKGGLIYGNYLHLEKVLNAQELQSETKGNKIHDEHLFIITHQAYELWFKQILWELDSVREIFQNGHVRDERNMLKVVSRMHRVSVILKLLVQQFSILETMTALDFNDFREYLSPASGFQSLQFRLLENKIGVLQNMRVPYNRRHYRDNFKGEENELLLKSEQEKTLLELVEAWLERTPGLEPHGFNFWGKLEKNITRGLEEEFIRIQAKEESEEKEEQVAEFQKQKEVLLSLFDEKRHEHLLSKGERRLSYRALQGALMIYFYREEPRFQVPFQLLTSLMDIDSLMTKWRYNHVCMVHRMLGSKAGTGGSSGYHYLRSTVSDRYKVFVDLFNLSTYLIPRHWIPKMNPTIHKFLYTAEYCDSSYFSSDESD
In words: Biochemical assay for TDO (NFK GreenScreen). Particulars: 50 nM TDO, 200 μM L-tryptophan. Here is the method:
Biochemical Assay for TDO
The NFK GreenScreen™ assay technology was also used to determine the inhibitory activity of compounds on TDO (Seegers, N., et al., J. Biol. Screen. 19: 1266; 2014). Compounds were serially diluted in DMSO and finally in TDO reaction buffer, consisting of 100 mM NaH2PO4, pH 7.0, supplemented with 0.02% Tween-20 (cat. No. P7949; Sigma Aldrich). Recombinant TDO (Seegers, N., et al.) and all other assay components were diluted in TDO reaction buffer. 10 μl of compound solution and 20 μl of enzyme solution supplemented with 200 μM ascorbic acid were combined in the well of a black 384-well plate (cat. no. 3573; Corning, Corning, N.Y., USA), and incubated for 60 min at room temperature. Subsequently, 10 μl of 0.8 mM of the substrate L-tryptophan was added, i.e., the final concentration of L-tryptophan was 200 μM. The DMSO concentration in the assay was 0.3%. The concentration of TDO was 50 nM. Incubation was continued for 15 min at room temperature. Then, 10 μl of NFK Green™ (NTRC, Oss, The Netherlands) was added, the plate was sealed, and the reaction was developed for 3 hours at 37° C. To determine the production of N-formyl kynurenine (NFK), the seal was removed and fluorescence was read on an EnVision multimode reader (Perkin Elmer, Waltham, Mass., USA). IC50 were calculated using XLfit™ software (ID Business Solutions, Ltd., Surrey, U.K.).

Assay [3] deals with CYP2D6 (Homo sapiens, UniProt P10635). In words: P450-Glo CYP2D6 Luc-IP assay.
Chain of CYP2D6 (P10635 whole entry): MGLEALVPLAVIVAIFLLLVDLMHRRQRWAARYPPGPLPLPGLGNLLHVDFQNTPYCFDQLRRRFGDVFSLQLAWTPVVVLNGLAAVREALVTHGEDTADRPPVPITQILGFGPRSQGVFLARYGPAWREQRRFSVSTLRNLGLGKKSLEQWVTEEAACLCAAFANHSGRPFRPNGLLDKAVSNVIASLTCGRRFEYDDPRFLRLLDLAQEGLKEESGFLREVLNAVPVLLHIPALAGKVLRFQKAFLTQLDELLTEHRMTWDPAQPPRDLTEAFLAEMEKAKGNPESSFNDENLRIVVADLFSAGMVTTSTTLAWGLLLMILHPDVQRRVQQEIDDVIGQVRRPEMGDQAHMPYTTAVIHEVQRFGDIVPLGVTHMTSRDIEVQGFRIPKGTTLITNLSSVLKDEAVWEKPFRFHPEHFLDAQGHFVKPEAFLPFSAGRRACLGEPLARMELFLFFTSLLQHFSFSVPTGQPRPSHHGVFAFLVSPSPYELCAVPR
Assay [4] deals with CYP3A4 (Homo sapiens, UniProt P08684). In words: P450-Glo CYP3A4 luciferin isopropylacetal (Luc-IP) assay.
Chain of CYP3A4 (P08684 whole entry): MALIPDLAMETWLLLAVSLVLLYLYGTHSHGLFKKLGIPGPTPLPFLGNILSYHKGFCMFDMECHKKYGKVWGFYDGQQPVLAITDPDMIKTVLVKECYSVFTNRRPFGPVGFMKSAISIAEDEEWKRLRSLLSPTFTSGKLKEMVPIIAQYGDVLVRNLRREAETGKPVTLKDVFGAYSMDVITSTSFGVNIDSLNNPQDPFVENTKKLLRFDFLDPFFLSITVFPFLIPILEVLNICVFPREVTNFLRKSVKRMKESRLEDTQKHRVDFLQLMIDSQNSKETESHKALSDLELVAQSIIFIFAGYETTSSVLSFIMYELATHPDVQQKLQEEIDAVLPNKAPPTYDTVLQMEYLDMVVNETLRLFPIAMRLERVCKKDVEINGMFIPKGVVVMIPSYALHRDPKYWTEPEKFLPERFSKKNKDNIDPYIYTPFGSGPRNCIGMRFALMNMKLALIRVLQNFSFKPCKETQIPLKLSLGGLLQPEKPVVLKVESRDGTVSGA

Values joined by “and” are separate entries in the source; they are usually repeats but may differ in a detail not shown here. Equal values may be shown once.

T1 sequence (P48775 whole entry): as the sequence (P48775 whole entry) above

In the case of `N[C@H]1CC[C@@H](NC(=O)c2ccc(-c3c[nH]c4cc(F)ccc34)cc2)CC1` [Example 61, N-(cis-4-aminocyclohexyl)-4-(6-fluoro-1H-indol-3-yl)benzamide], the IC50 in assay [1] is ≤ 0.5 µM and 0.2 to 0.5 µM; in assay [2] it was less than 1 µM; in assay [3], more than 10 µM; in assay [4], 5 to 10 µM.

With `COc1cc(-c2c[nH]c3cc(F)ccc23)ccc1C(=O)NCCCN(C)C` [Example 137, N-[3-(dimethylamino)propyl]-4-(6-fluoro-1H-indol-3-yl)-2-methoxy-benzamide], the IC50 in assay [1] was not above 0.2 µM; in assay [2] it was less than 1 µM; in assay [3] it was more than 10 µM; in assay [4], more than 10 µM.

`NC(=O)CNC(=O)c1ccc(-c2c[nH]c3cc(F)ccc23)cc1` [Example 112, N-(2-amino-2-oxo-ethyl)-4-(6-fluoro-1H-indol-3-yl)benzamide]: the IC50 in assay [1] is ≤ 0.5 µM and 0.2 to 0.5 µM; in assay [2], less than 1 µM; in assay [3], more than 10 µM; in assay [4], more than 10 µM.

As for `O=C(N[C@H]1CCC[C@@H]1O)c1ccc(-c2c[nH]c3cc(F)ccc23)cc1` [Example 87, 4-(6-Fluoro-1H-indol-3-yl)-N-[(1S,2S)-2-hydroxycyclopentyl]benzamide], the IC50 in assay [1] is ≤ 0.5 µM and 0.2 to 0.5 µM; in assay [2], less than 1 µM; in assay [3], more than 10 µM; in assay [4], more than 10 µM.

For `CS(=O)(=O)N1CCCC(NC(=O)c2ccc(-c3c[nH]c4cc(F)ccc34)cc2)C1` (stereo not shown) [Example 120, 4-(6-Fluoro-1H-indol-3-yl)-N-(1-methylsulfonyl-3-piperidyl)benzamide], the IC50 in assay [1] is ≤ 0.5 µM and 0.2 to 0.5 µM; in assay [3], more than 10 µM; in assay [4], more than 10 µM.

Regarding `Nc1ccn(C(=O)c2ccc(-c3c[nH]c4cc(F)ccc34)cc2)n1` [Example 85, (3-Aminopyrazol-1-yl)-[4-(6-fluoro-1H-indol-3-yl)phenyl]methanone], the values for the IC50 in assay [2], in assay [3] and in assay [4] were 1 to 5 µM, 5 to 10 µM and more than 10 µM, respectively.

As to `CN(C)CCCNC(=O)c1ccc(-c2c[nH]c3ccc(F)cc23)cc1` [Example 38, N-[3-(dimethylamino)propyl]-4-(5-fluoro-1H-indol-3-yl)benzamide], the concentration for half-maximal inhibition (IC50) in assay [2] was less than 1 µM; in assay [3], more than 10 µM; in assay [4], more than 10 µM.

Regarding `CCNCC(=O)Nc1ccc(-c2c[nH]c3cc(F)ccc23)cc1` [Example 29, 2-(Ethylamino)-N-[4-(6-fluoro-1H-indol-3-yl)phenyl]acetamide], the concentration for half-maximal inhibition (IC50) in assay [2] was less than 1 µM; in assay [3] it was more than 10 µM; in assay [4] it was more than 10 µM.

Consider `O=C(N[C@H]1CCCNC1)c1ccc(-c2c[nH]c3ccc(F)cc23)cc1` [Example 41, 4-(5-Fluoro-1H-indol-3-yl)-N-[(3S)-3-piperidyl]benzamide], for which the results for the IC50 in assay [2], in assay [3] and in assay [4] were less than 1 µM, more than 10 µM and more than 10 µM, respectively.

Regarding `COCC(C)C(=O)Nc1ccc(-c2c[nH]c3cc(F)ccc23)cc1` (stereo not shown) [Example 33, N-[4-(6-fluoro-1H-indol-3-yl)phenyl]-3-methoxy-2-methyl-propanamide], the values for the IC50 in assay [2], in assay [3] and in assay [4] were less than 1 µM, more than 10 µM and more than 10 µM, respectively.

On to `Cn1cc(CCC(=O)Nc2ccc(-c3c[nH]c4cc(F)ccc34)cc2)cn1` [Example 107, N-[4-(6-fluoro-1H-indol-3-yl)phenyl]-3-(1-methylpyrazol-4-yl)propanamide], for which the IC50 in assay [1] is ≤ 0.5 µM and 0.2 to 0.5 µM; in assay [3], more than 10 µM; in assay [4], more than 10 µM.

Regarding `C[C@H](O)CC(=O)Nc1ccc(-c2c[nH]c3cc(F)ccc23)cc1` [Example 34, (3S)—N-[4-(6-fluoro-1H-indol-3-yl)phenyl]-3-hydroxy-butanamide], the results for the IC50 in assay [2], in assay [3] and in assay [4] were less than 1 µM, more than 10 µM and more than 10 µM, respectively.

As to `O=C(CC1CC1)Nc1ccc(-c2c[nH]c3cc(F)ccc23)cc1` [Example 28, 2-Cyclopropyl-N-[4-(6-fluoro-1H-indol-3-yl)phenyl]acetamide], the results for the half-inhibitory concentration (IC50) in assay [2], in assay [3] and in assay [4] were 1 to 5 µM, more than 10 µM and more than 10 µM, respectively.
